Measurements reported in PubChem BioAssay (NCI).
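Cells were grown in 96-well plates and exposed to each compound for 48 hours at five concentrations; endpoints were interpolated linearly between bracketing concentrations, or set to the highest concentration if not reached. TGI denotes the concentration required for complete inhibition of growth.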

Tests used:
Test in all cases: NCI anticancer screen, dose series, 48 h
LOX IMVI melanoma = test system: LOX IMVI melanoma
SN12C renal = test system: SN12C renal
DLD-1 colon = test system: DLD-1 colon
SF-539 CNS = test system: SF-539 CNS
DMS 273 small cell lung = test system: DMS 273 small cell lung
OVCAR-4 ovarian = test system: OVCAR-4 ovarian
OVCAR-5 ovarian = test system: OVCAR-5 ovarian
DMS 114 small cell lung = test system: DMS 114 small cell lung
HOP-18 NSCLC = test system: HOP-18 NSCLC
LXFL 529 NSCLC = test system: LXFL 529 NSCLC
SNB-19 CNS = test system: SNB-19 CNS
NCI-H460 lung = test system: NCI-H460 lung
RPMI-8226 leukemia = test system: RPMI-8226 leukemia
COLO 205 colon = test system: COLO 205 colon
SNB-75 CNS = test system: SNB-75 CNS
SK-OV-3 ovarian = test system: SK-OV-3 ovarian
SK-MEL-28 melanoma = test system: SK-MEL-28 melanoma
SNB-78 CNS = test system: SNB-78 CNS
HL-60(TB) leukemia = test system: HL-60(TB) leukemia
MOLT-4 leukemia = test system: MOLT-4 leukemia
HCT-116 colon = test system: HCT-116 colon
EKVX NSCLC = test system: EKVX NSCLC
HCC-2998 colon = test system: HCC-2998 colon
ACHN renal = test system: ACHN renal
U251 CNS = test system: U251 CNS
SF-295 CNS = test system: SF-295 CNS
CCRF-CEM leukemia = test system: CCRF-CEM leukemia
RXF 393 renal = test system: RXF 393 renal
A549 NSCLC = test system: A549 NSCLC
TK-10 renal = test system: TK-10 renal
SW-620 colon = test system: SW-620 colon
M14 melanoma = test system: M14 melanoma
SF-268 CNS = test system: SF-268 CNS
HOP-62 NSCLC = test system: HOP-62 NSCLC
KM20L2 colon = test system: KM20L2 colon
SK-MEL-2 melanoma = test system: SK-MEL-2 melanoma
XF 498 CNS = test system: XF 498 CNS
OVCAR-3 ovarian = test system: OVCAR-3 ovarian
HCT-15 colon = test system: HCT-15 colon
CAKI-1 renal = test system: CAKI-1 renal
NCI-H23 lung = test system: NCI-H23 lung
KM12 colon = test system: KM12 colon
HT29 colon = test system: HT29 colon
NCI-H226 lung = test system: NCI-H226 lung
UACC-62 melanoma = test system: UACC-62 melanoma
SR leukemia = test system: SR leukemia
MALME-3M melanoma = test system: MALME-3M melanoma
HOP-92 NSCLC = test system: HOP-92 NSCLC
K-562 leukemia = test system: K-562 leukemia
NCI-H522 lung = test system: NCI-H522 lung
M19-MEL melanoma = test system: M19-MEL melanoma
SK-MEL-5 melanoma = test system: SK-MEL-5 melanoma
786-0 renal = test system: 786-0 renal
UACC-257 melanoma = test system: UACC-257 melanoma
UO-31 renal = test system: UO-31 renal
OVCAR-8 ovarian = test system: OVCAR-8 ovarian
IGROV1 ovarian = test system: IGROV1 ovarian
A498 renal = test system: A498 renal

SMILES: Nc1ccc2ncc(NCc3ccc(F)cc3)nc2c1
- TGI (LOX IMVI melanoma): > 100 µM
- TGI (SN12C renal): > 100 µM
- TGI (DLD-1 colon): > 100 µM
- TGI (SF-539 CNS): > 100 µM
- TGI (DMS 273 small cell lung): > 100 µM
- TGI (OVCAR-4 ovarian): > 100 µM
- TGI (OVCAR-5 ovarian): > 100 µM
- TGI (DMS 114 small cell lung): > 100 µM
- TGI (HOP-18 NSCLC): > 100 µM
- TGI (LXFL 529 NSCLC): > 100 µM
- TGI (SNB-19 CNS): > 100 µM
- TGI (NCI-H460 lung): > 100 µM
- TGI (RPMI-8226 leukemia): > 100 µM
- TGI (COLO 205 colon): > 100 µM
- TGI (SNB-75 CNS): > 100 µM
- TGI (SK-OV-3 ovarian): > 100 µM
- TGI (SK-MEL-28 melanoma): > 100 µM
- TGI (SNB-78 CNS): > 100 µM
- TGI (HL-60(TB) leukemia): > 100 µM
- TGI (MOLT-4 leukemia): > 100 µM
- TGI (HCT-116 colon): > 100 µM
- TGI (EKVX NSCLC): > 100 µM
- TGI (HCC-2998 colon): > 100 µM
- TGI (ACHN renal): > 100 µM
- TGI (U251 CNS): > 100 µM
- TGI (SF-295 CNS): > 100 µM
- TGI (CCRF-CEM leukemia): > 100 µM
- TGI (RXF 393 renal): > 100 µM
- TGI (A549 NSCLC): > 100 µM
- TGI (TK-10 renal): > 100 µM
- TGI (SW-620 colon): > 100 µM
- TGI (M14 melanoma): > 100 µM
- TGI (SF-268 CNS): > 100 µM
- TGI (HOP-62 NSCLC): > 100 µM
- TGI (KM20L2 colon): > 100 µM
- TGI (SK-MEL-2 melanoma): > 100 µM
- TGI (XF 498 CNS): 86.1 µM
- TGI (OVCAR-3 ovarian): > 100 µM
- TGI (HCT-15 colon): > 100 µM
- TGI (CAKI-1 renal): > 100 µM
- TGI (NCI-H23 lung): > 100 µM
- TGI (KM12 colon): > 100 µM
- TGI (HT29 colon): > 100 µM
- TGI (NCI-H226 lung): > 100 µM
- TGI (UACC-62 melanoma): > 100 µM
- TGI (SR leukemia): > 100 µM
- TGI (MALME-3M melanoma): > 100 µM
- TGI (HOP-92 NSCLC): > 100 µM
- TGI (K-562 leukemia): > 100 µM
- TGI (NCI-H522 lung): > 100 µM
- TGI (M19-MEL melanoma): > 100 µM
- TGI (SK-MEL-5 melanoma): > 100 µM
- TGI (786-0 renal): > 100 µM
- TGI (UACC-257 melanoma): > 100 µM
- TGI (UO-31 renal): > 100 µM
- TGI (OVCAR-8 ovarian): > 100 µM

SMILES: COC(=O)C12CCC(CC1=O)C2(C)C (centres undefined)
- TGI (LOX IMVI melanoma): > 100 µM
- TGI (SN12C renal): > 100 µM
- TGI (DLD-1 colon): > 100 µM
- TGI (IGROV1 ovarian): > 100 µM
- TGI (SF-539 CNS): > 100 µM
- TGI (DMS 273 small cell lung): > 100 µM
- TGI (OVCAR-4 ovarian): > 100 µM
- TGI (DMS 114 small cell lung): > 100 µM
- TGI (HOP-18 NSCLC): > 100 µM
- TGI (SNB-19 CNS): > 100 µM
- TGI (NCI-H460 lung): > 100 µM
- TGI (RPMI-8226 leukemia): > 100 µM
- TGI (COLO 205 colon): > 100 µM
- TGI (SNB-75 CNS): > 100 µM
- TGI (SK-OV-3 ovarian): > 100 µM
- TGI (SK-MEL-28 melanoma): > 100 µM
- TGI (HL-60(TB) leukemia): > 100 µM
- TGI (MOLT-4 leukemia): > 100 µM
- TGI (HCT-116 colon): > 100 µM
- TGI (EKVX NSCLC): > 100 µM
- TGI (HCC-2998 colon): > 100 µM
- TGI (ACHN renal): > 100 µM
- TGI (U251 CNS): > 100 µM
- TGI (SF-295 CNS): > 100 µM
- TGI (RXF 393 renal): > 100 µM
- TGI (A549 NSCLC): > 100 µM
- TGI (TK-10 renal): > 100 µM
- TGI (SW-620 colon): > 100 µM
- TGI (M14 melanoma): > 100 µM
- TGI (HOP-62 NSCLC): > 100 µM
- TGI (A498 renal): > 100 µM
- TGI (KM20L2 colon): > 100 µM
- TGI (XF 498 CNS): > 100 µM
- TGI (OVCAR-3 ovarian): > 100 µM
- TGI (HCT-15 colon): > 100 µM
- TGI (NCI-H23 lung): > 100 µM
- TGI (HT29 colon): > 100 µM
- TGI (NCI-H226 lung): > 100 µM
- TGI (UACC-62 melanoma): > 100 µM
- TGI (SR leukemia): > 100 µM
- TGI (MALME-3M melanoma): > 100 µM
- TGI (HOP-92 NSCLC): > 100 µM
- TGI (K-562 leukemia): > 100 µM
- TGI (SK-MEL-5 melanoma): > 100 µM
- TGI (786-0 renal): > 100 µM
- TGI (UACC-257 melanoma): > 100 µM
- TGI (UO-31 renal): > 100 µM
- TGI (OVCAR-8 ovarian): > 100 µM
